Test results: patent US12497409B2, “Crystal form of gonadotropin releasing hormone antagonist, preparation method therefor, and use thereof” (Shenzhen Rentai Pharmatech Ltd., priority 2019, dated 2025)

Key:
Format in all cases: physicochemical
[1] = Saturation solubility in water (HPLC); settings: for Saturation solubility: in water, room temperature, stirred for 12 hours, excess solid, HPLC; for solubility, in words: saturation solubility, forms C and D compared with crystal form A
Source text: Samples for test: a crystal form C and a crystal form D of a compound of a formula (I), their preparation methods being respectively shown in Example 1 and Example 2, a preparation method of the crystal form A of the compound of the formula (I) being shown in Comparative example 1.
Test method: the crystal form A, the crystal form C, and the crystal form D of the compound of the formula (I) were respectively taken, to measure their saturation solubility in water, a specific method was: a suitable amount of the samples for test were respectively taken, and put into a […] sample bottle, 3 ml of a water solution was added, the solid was excess, and the obtained solution was placed at room temperature and stirred for 12 hours, and solubility in water was measured by using an HPLC method. The operation conditions of HPLC are as follows:
instrument: high performance liquid chromatograph (model: Thermo U3000)
chromatographic column: Agilent C18 column (5 μm, 150 mm×4.6 mm)
mobile phase composition and gradient elution program: […]
Detection wavelength: 254.4 nm;
column temperature: 30° C.

[2] = Hygroscopicity test, dynamic vapor sorption (DVS); settings: for hygroscopicity, in words: forms C and D compared with crystal form A
[3] = Stability test (illumination, high temperature, high humidity; XRPD and HPLC purity); settings: for Initial purity (day 0): day 0, before stress, HPLC; for crystal transformation (XRPD): 10 days
Procedure: Illumination stability: samples of the crystal form C and the crystal form D of the compound of the formula (I) (respectively prepared in Example 1 and Example 2) were respectively taken and placed at 25° C. under an illumination condition of 4500 Lux for 10 days, and samples were taken respectively on day 5 and day 10 at fixed time points to determine XRPD patterns of the crystal forms C and D and the content of N-(4-(1-(2,6-difluorobenzyl)-5-((dimethylamino)methyl)-3-(6-methoxy-3-pyridazinyl)-2,4-dioxo-1,2,3,4-tetrahydrothieno[2,3-d]pyrimidin-6-yl)phenyl)-N′-methoxyurea in the crystal forms C and D, which were compared with those of the samples on day 0. High temperature stability: samples of the crystal form C and the crystal form D of the compound of the formula (I) (respectively prepared in Example 1 and Example 2) were respectively taken and placed at 60° C. for 10 days, and samples were taken respectively on day 5 and day 10 at fixed time points to determine XRPD patterns of the crystal forms C and D and the content of N-(4-(1-(2,6-difluorobenzyl)-5-((dimethylamino)methyl)-3-(6-methoxy-3-pyridazinyl)-2,4-dioxo-1,2,3,4-tetrahydrothieno[2,3-d]pyrimidin-6-yl)phenyl)-N′-methoxyurea in the crystal form C and the crystal form D, which were compared with those of the samples on day 0. High humidity stability: samples of the crystal form C and the crystal form D of the compound of the formula (I) (respectively prepared in Example 1 and Example 2) were respectively taken and placed at 40° C. at 75% RH for 10 days, and samples were taken respectively on day 5 and day 10 at fixed time points to determine XRPD patterns of the crystal forms C and D and the content of N-(4-(1-(2,6-difluorobenzyl)-5-((dimethylamino)methyl)-3-(6-methoxy-3-pyridazinyl)-2,4-dioxo-1,2,3,4-tetrahydrothieno[2,3-d]pyrimidin-6-yl)phenyl)-N′-methoxyurea in the crystal form C and the crystal form D, which were compared with those of the samples on day 0. A specific stability test method can refer to the method in appendix XI C of Part II of Chinese Pharmacopoeia (2015 edition); the purity detection adopts an HPLC method, and the purity can be determined by an external standard method with reference to the method in appendix VD of Chinese Pharmacopoeia (2015 edition) by using the samples on day 0 as a reference substance. instrument: high performance liquid chromatograph (model: Thermo U3000) chromatographic column: Agilent C18 column (5 μm, 150 mm×4.6 mm) mobile phase composition and gradient elution program: [table] detection wavelength: 254.4 nm; flow rate: 1 ml/min; sample size:15 μL; column temperature: 30° C.

[4] = as above; settings: high humidity (25° C., 92.5% RH), 10 days
[5] = 25° C., 4500 Lux (illumination), listed as crystal form C
[6] = 40° C., 75% RH (high humidity), listed as crystal form C
[7] = 60° C. (high temperature), listed as crystal form C
[8] = 25° C., 4500 Lux (illumination), listed as crystal form D
[9] = 40° C., 75% RH (high humidity), listed as crystal form D
[10] = 60° C. (high temperature), listed as crystal form D

In the case of CONC(=O)Nc1ccc(-c2sc3c(c2CN(C)C)c(=O)n(-c2ccc(OC)nn2)c(=O)n3Cc2c(F)cccc2F)cc1 [Crystal form A, N-(4-(1-(2,6-difluorobenzyl)-5-((dimethylamino)methyl)-3-(6-methoxy-3-pyridazinyl)-2,4-dioxo-1,2,3,4-tetrahydrothieno[2,3-d]pyrimidin-6-yl)phenyl)-N′-methoxyurea], the Saturation solubility [1] is reported as 28.50 µg/mL, the “solubility, in words” value ([1]; listed as crystal form A) is reported as “low solubility” and the “moisture absorption (hygroscopy gain)” value ([2]; 25° C., humidity gradually increased from 0 to 50% RH) is reported as 0.57%. The “hygroscopicity (hygroscopy gain)” value ([2]; 25° C., humidity gradually increased from 0 to 90% RH) was 25.84% and the “hygroscopicity, in words” value ([2]; listed as crystal form A) was “high hygroscopicity”.
In the case of CONC(=O)Nc1ccc(-c2sc3c(c2CN(C)C)c(=O)n(-c2ccc(OC)nn2)c(=O)n3Cc2c(F)cccc2F)cc1 [Crystal form C, N-(4-(1-(2,6-difluorobenzyl)-5-((dimethylamino)methyl)-3-(6-methoxy-3-pyridazinyl)-2,4-dioxo-1,2,3,4-tetrahydrothieno[2,3-d]pyrimidin-6-yl)phenyl)-N′-methoxyurea], the Saturation solubility ([1]; listed as crystal form C) is reported as 101.75 µg/mL, the “solubility, in words” value ([1]; listed as crystal form C) is reported as “significantly improved” and the “hygroscopicity, in words” value ([2]; listed as crystal form C) is reported as “significantly decreased”. For the same molecule, the “Purity change on day 10” value [3, 5] was 0.49%, the “Purity on day 5” value [3, 5] was 98.99% and the “Purity on day 10” value [3, 5] was 98.84%. For the same molecule, the “Purity change on day 10” value [3, 6] was 3.33%, the “Purity on day 5” value [3, 6] was 96.88% and the “Purity on day 10” value [3, 6] was 96%. For the same molecule, the “Purity change on day 10” value [3, 7] was 2.58%, the “Purity on day 5” value [3, 7] was 97.89% and the “Purity on day 10” value [3, 7] was 96.75%. The “Initial purity (day 0)” value ([3]; listed as crystal form C) was 99.33%, the “crystal transformation (XRPD)” value ([3]; high temperature (60° C.)) was “no crystal transformation” and the “crystal transformation (XRPD)” value ([3]; strong illumination (25° C., 4500 Lux)) was “no crystal transformation”. The “crystal transformation (XRPD)” value [4] was “no crystal transformation”.
For CONC(=O)Nc1ccc(-c2sc3c(c2CN(C)C)c(=O)n(-c2ccc(OC)nn2)c(=O)n3Cc2c(F)cccc2F)cc1 [Crystal form D, N-(4-(1-(2,6-difluorobenzyl)-5-((dimethylamino)methyl)-3-(6-methoxy-3-pyridazinyl)-2,4-dioxo-1,2,3,4-tetrahydrothieno[2,3-d]pyrimidin-6-yl)phenyl)-N′-methoxyurea], the Saturation solubility ([1]; listed as crystal form D) was 87.21 µg/mL, the “solubility, in words” value ([1]; listed as crystal form D) was “significantly improved” and the “hygroscopicity, in words” value ([2]; listed as crystal form D) was “significantly decreased”. The “Purity change on day 10” value [3, 8] was 0.50%, the “Purity on day 5” value [3, 8] was 98.1% and the “Purity on day 10” value [3, 8] was 98.57%. For the same molecule, the “Purity change on day 10” value [3, 9] was 1.86%, the “Purity on day 5” value [3, 9] was 97.88% and the “Purity on day 10” value [3, 9] was 97.21%. For the same molecule, the “Purity change on day 10” value [3, 10] was 2.56%, the “Purity on day 5” value [3, 10] was 96.25% and the “Purity on day 10” value [3, 10] was 96.51%. For the same molecule, the “Initial purity (day 0)” value ([3]; listed as crystal form D) was 99.07%.
